Source: patent US10301291B2, “Imidazole derivative having JNK inhibitory activity and use thereof” (SAMJIN PHARMACEUTICAL CO., LTD., priority 2016, dated 2019)

biological target: JNK3 (Homo sapiens (Human), UniProt P53779); test: Measurement of JNK3 enzyme activity (33P-ATP filter-binding); type: biochemical; conditions: human JNK3, ATP 10 μM, ATF2 3 μM
Protocol: The changes in JNK3 enzyme activity resulting from being treated with the inventive imidazole derivative (Formula 1) shown in a following Table 1 were identified through IC50.
First of all, after a substrate was inserted into a prepared base reaction buffer solution (20 mM Hepes ([…]), 10 mM MgCl2, 1 mM EGTA, 0.02% Brij35, 0.02 mg/ml BSA, 0.1 mM Na3VO4, 2 mM DTT, 1% DMSO), a human JNK3 enzyme was added into a prepared substrate solution and then mixed together. As the substrate, ATP (10 μM) and ATF2 (3 μM) were used, among which the ATP was also used as a common substrate. Then, compounds of Examples 1-18 and 25-36, which were dissolved in 100% DMSO, were inserted into an enzyme reaction solution, and then cultured at room temperature for 20 minutes. Then, ^33P-ATP was inserted into the above reaction mixture solution to initiate a reaction, then cultured at room temperature for 2 hours, and then an enzyme activity was detected by means of a filter-binding method.
Particularly, after each 25 μl of the resulting solution was slowly spotted on P81 paper, it was inserted into a scintillation vial, and washed with 0.75% phosphoric acid four times for 10 minutes each, and with acetone once for 5 minutes. 5 ml of scintillation cocktail was inserted into the above scintillation vial and a resulting signal was read by means of a scintillation counter.
IC50 values of compounds of Examples 1-18 and 25-36 with regard to JNK3 enzyme activity were shown in a following Table 2.

Chain of JNK3 (P53779 whole entry): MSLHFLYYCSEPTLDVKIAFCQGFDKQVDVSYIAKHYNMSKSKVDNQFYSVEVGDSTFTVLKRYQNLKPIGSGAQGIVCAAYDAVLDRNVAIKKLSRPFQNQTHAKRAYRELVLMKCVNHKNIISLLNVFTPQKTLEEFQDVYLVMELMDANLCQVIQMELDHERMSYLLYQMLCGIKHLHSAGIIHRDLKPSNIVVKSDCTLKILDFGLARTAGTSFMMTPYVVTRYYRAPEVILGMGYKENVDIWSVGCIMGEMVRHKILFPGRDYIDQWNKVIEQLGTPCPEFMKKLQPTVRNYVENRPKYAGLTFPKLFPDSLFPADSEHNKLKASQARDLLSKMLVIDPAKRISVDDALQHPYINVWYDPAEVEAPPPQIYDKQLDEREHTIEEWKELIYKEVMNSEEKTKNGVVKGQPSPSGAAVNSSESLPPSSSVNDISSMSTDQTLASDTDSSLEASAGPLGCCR

Compared with `N#CCc1cnc(-c2ccc(Cl)c(Cl)c2)n1-c1ccnc(NC2CCCN(C(=O)C3CC3)C2)n1` (stereo not drawn) [Example 35, 2-(1-(2-(1-(cyclopropanecarbonyl)piperidine-3-ylamino)pyrimidine-4-yl)-2-(3,4-dichlorophenyl)-1H-imidazole-5-yl)acetonitrile], `N#CCc1cnc(-c2ccc3occc3c2)n1-c1ccnc(NC2CCCN(C(=O)C3CC3)C2)n1` (stereo not drawn) [Example 37] is lower in IC50: 30 to 100 nM for the first, < 30 nM for the second. The second is the more potent here.

First: N#CCc1cnc(-c2ccc3ccccc3c2)n1-c1ccnc(NC2CCCNC2)n1 (stereo not drawn) [Example 28, 2-(2-(naphthalene-2-yl)-1-(2-(piperidine-3-ylamino)pyrimidine-4-yl)-1H-imidazole-5-yl)acetonitrile]
Second: N#CCc1cnc(-c2ccc3ccccc3c2)n1-c1ccnc(NC2CCCCC2)n1 [Example 10, 2-(1-(2-(cyclohexylamino)pyrimidine-4-yl)-2-(naphthalene-2-yl)-1H-imidazole-5-yl)acetonitrile]
The IC50 of the first is lower: < 30 nM for the first, 30 to 100 nM for the second. The first is the more potent here.

Compared with `N#CCc1cnc(-c2ccc3c(c2)OCCO3)n1-c1ccnc(NC2CCOCC2)n1` [Example 2, 2-(2-(2,3-dihydrobenzo[b][1,4]dioxin-6-yl)-1-(2-(tetrahydro-2H-pyran-4-ylamino)pyrimidine-4-yl)-1H-imidazole-5-yl)acetonitrile], `N#CCc1cnc(-c2ccc3c(c2)OCO3)n1-c1ccnc(NC2CCOCC2)n1` [Example 1, 2-(2-(benzo[d][1,3]dioxol-5-yl)-1-(2-(tetrahydro-2H-pyran-4-ylamino)pyrimidine-4-yl)-1H-imidazole-5-yl)acetonitrile] is lower in IC50: > 100 nM for the first, 30 to 100 nM for the second. The second is the more potent here.

`N#CCc1cnc(-c2ccc(Cl)c(Cl)c2)n1-c1ccnc(NC2CCCCC2)n1` [Example 11, 2-(1-(2-(cyclohexylamino)pyrimidine-4-yl)-2-(3,4-dichlorophenphenyl)-1H-imidazole-5-yl)acetonitrile] and `N#CCc1cnc(-c2ccc(Cl)c(Cl)c2)n1-c1ccnc(NC2CCOCC2)n1` [Example 5, 2-(2-(3,4-dichlorophenyl)-1-(2-(tetrahydro-2H-pyran-4-ylamino)pyrimidine-4-yl)-1H-imidazole-5-yl)acetonitrile] fall in the same range of IC50: 30 to 100 nM for the first, 30 to 100 nM for the second.

First: N#CCc1cnc(-c2ccc3ccccc3n2)n1-c1ccnc(NC2CCOCC2)n1 [Example 3, 2-(2-(quinoline-2-yl)-1-(2-(tetrahydro-2H-pyran-4-ylamino)pyrimidine-4-yl)-1H-imidazole-5-yl) acetonitrile]
Second: N#CCc1cnc(-c2ccc3ccccc3n2)n1-c1ccnc(NC2CCCCC2)n1 [Example 9, 2-(1-(2-(cyclohexylamino)pyrimidine-4-yl)-2-(quinoline-2-yl)-1H-imidazole-5-yl)acetonitrile]
The IC50 of the first is lower: 30 to 100 nM for the first, > 100 nM for the second. The first is the more potent here.

First: N#CCc1cnc(-c2ccc3ccccc3n2)n1-c1ccnc(NC2CCCNC2)n1 (stereo not drawn) [Example 27, 2-(1-(2-(piperidine-3-ylamino)pyrimidine-4-yl)-2-(quinoline-2-yl)-1H-imidazole-5-yl)acetonitrile]
Second: N#CCc1cnc(-c2ccc3ccccc3n2)n1-c1ccnc(NC2CCCN(C(=O)C3CC3)C2)n1 (stereo not drawn) [Example 33, 2-(1-(2-(1-(cyclopropanecarbonyl)piperidine-3-ylamino)pyrimidine-4-yl)-2-(quinoline-2-yl)-1H-imidazole-5-yl)acetonitrile]
The IC50 of the first is higher: 30 to 100 nM for the first, < 30 nM for the second.

`N#CCc1cnc(-c2ccc3c(c2)OCCO3)n1-c1ccnc(NC2CCCN(C(=O)C3CC3)C2)n1` (stereo not drawn) [Example 32, 2-(1-(2-(1-(cyclopropanecarbonyl)piperidine-3-ylamino)pyrimidine-4-yl)-2-(2,3-dihydrobenzo[b][1,4]dioxin-6-yl)-1H-imidazole-5-yl)acetonitrile] and `N#CCc1cnc(-c2ccc3c(c2)OCO3)n1-c1ccnc(NC2CCCN(C(=O)C3CC3)C2)n1` (stereo not drawn) [Example 31, 2-(2-(benzo[d][1,3]dioxol-5-yl)-1-(2-(1-(cyclopropanecarbonyl)piperidine-3-ylamino)pyrimidine-4-yl)-1H-imidazole-5-yl)acetonitrile] fall in the same range of IC50: 30 to 100 nM for the first, 30 to 100 nM for the second.

`CC(O)CNc1nccc(-n2c(CC#N)cnc2-c2ccc3c(c2)OCCO3)n1` (stereo not drawn) [Example 14, 2-(2-(2,3-dihydrobenzo[b][1,4]dioxin-6-yl)-1-(2-(2-hydroxypropylamino)pyrimidine-4-yl)-1H-imidazole-5-yl)acetonitrile] and `CC(O)CNc1nccc(-n2c(CC#N)cnc2-c2ccc3c(c2)OCO3)n1` (stereo not drawn) [Example 13, 2-(2-(benzo[d][1,3]dioxol-5-yl)-1-(2-(2-hydroxypropylamino)pyrimidine-4-yl)-1H-imidazole-5-yl)acetonitrile] fall in the same range of IC50: 30 to 100 nM for the first, 30 to 100 nM for the second.

`CC(O)CNc1nccc(-n2c(CC#N)cnc2-c2ccc3ccccc3c2)n1` (stereo not drawn) [Example 16, 2-(1-(2-(2-hydroxypropylamino)pyrimidine-4-yl)-2-(naphthalene-2-yl)-1H-imidazole-5-yl)acetonitrile] and `CC(O)CNc1nccc(-n2c(CC#N)cnc2-c2ccc3ccccc3n2)n1` (stereo not drawn) [Example 15, 2-(1-(2-(2-hydroxypropylamino)pyrimidine-4-yl)-2-(quinoline-2-yl)-1H-imidazole-5-yl)acetonitrile] fall in the same range of IC50: 30 to 100 nM for the first, 30 to 100 nM for the second.

First: N#CCc1cnc(-c2ccc3ccccc3c2)n1-c1ccnc(NC2CCOCC2)n1 [Example 4, 2-(2-(naphthalene-2-yl)-1-(2-(tetrahydro-2H-pyran-4-ylamino)pyrimidine-4-yl)-1H-imidazole-5-yl)acetonitrile]
Second: N#CCc1cnc(-c2ccc(F)c(C(F)(F)F)c2)n1-c1ccnc(NC2CCOCC2)n1 [Example 6, 2-(2-(4-fluoro-3-(trifluoromethyl)phenyl)-1-(2-(tetrahydro-2H-pyran-4-ylamino)pyrimidine-4-yl)-1H-imidazole-5-yl)acetonitrile]
The IC50 of the first is lower: < 30 nM for the first, 30 to 100 nM for the second.

`CC(O)CNc1nccc(-n2c(CC#N)cnc2-c2ccc(F)c(C(F)(F)F)c2)n1` (stereo not drawn) [Example 18, 2-(2-(4-fluoro-3-(trifluoromethyl)phenyl)-1-(2-(2-hydroxypropylamino)pyrimidine-4-yl)-1H-imidazole-5-yl)acetonitrile] and `CC(O)CNc1nccc(-n2c(CC#N)cnc2-c2ccc(Cl)c(Cl)c2)n1` (stereo not drawn) [Example 17, 2-(2-(3,4-dichlorophenyl)-1-(2-(2-hydroxypropylamino)pyrimidine-4-yl)-1H-imidazole-5-yl)acetonitrile] fall in the same range of IC50: 30 to 100 nM for the first, 30 to 100 nM for the second.

`N#CCc1cnc(-c2ccc3c(c2)OCCO3)n1-c1ccnc(NC2CCCCC2)n1` [Example 8, 2-(1-(2-(cyclohexylamino)pyrimidine-4-yl)-2-(2,3-dihydrobenzo[b][1,4]dioxin-6-yl)-1H-imidazole-5-yl)acetonitrile] and `N#CCc1cnc(-c2ccc3c(c2)OCO3)n1-c1ccnc(NC2CCCCC2)n1` [Example 7, 2-(2-(benzo[d][1,3]dioxol-5-yl)-1-(2-(cyclohexylamino)pyrimidine-4-yl)-1H-imidazole-5-yl)acetonitrile] cannot be ordered by IC50: > 100 nM for the first, > 100 nM for the second.

First: N#CCc1cnc(-c2ccc3c(c2)OCCO3)n1-c1ccnc(NC2CCCNC2)n1 (stereo not drawn) [Example 26, 2-(2-(2,3-dihydrobenzo[b][1,4]dioxin-6-yl)-1-(2-(piperidine-3-ylamino)pyrimidine-4-yl)-1H-imidazole-5-yl)acetonitrile]
Second: N#CCc1cnc(-c2ccc3c(c2)OCO3)n1-c1ccnc(NC2CCCNC2)n1 (stereo not drawn) [Example 25, 2-(2-(benzo[d][1,3]dioxol-5-yl)-1-(2-(piperidine-3-ylamino)pyrimidine-4-yl)-1H-imidazole-5-yl) acetonitrile]
The IC50 of the first is lower: 30 to 100 nM for the first, > 100 nM for the second.

Compared with `N#CCc1cnc(-c2ccc(F)c(C(F)(F)F)c2)n1-c1ccnc(NC2CCCNC2)n1` (stereo not drawn) [Example 30, 2-(2-(4-fluoro-3-(trifluoromethyl)phenyl)-1-(2-(piperidine-3-ylamino)pyrimidine-4-yl)-1H-imidazole-5-yl)acetonitrile], `N#CCc1cnc(-c2ccc(F)c(C(F)(F)F)c2)n1-c1ccnc(NC2CCCCC2)n1` [Example 12, 2-(1-(2-(cyclohexylamino)pyrimidine-4-yl)-2-(4-fluoro-3-(trifluoromethyl)phenyl)-1H-imidazole-5-yl)acetonitrile] is higher in IC50: 30 to 100 nM for the first, > 100 nM for the second. The first is the more potent here.

`N#CCc1cnc(-c2ccc(F)c(C(F)(F)F)c2)n1-c1ccnc(NC2CCCN(C(=O)C3CC3)C2)n1` (stereo not drawn) [Example 36, 2-(1-(2-(1-(cyclopropanecarbonyl)piperidine-3-ylamino)pyrimidine-4-yl)-2-(4-fluoro-3-(trifluoromethyl)phenyl)-1H-imidazole-5-yl)acetonitrile] and `N#CCc1cnc(-c2ccc(Cl)c(Cl)c2)n1-c1ccnc(NC2CCCNC2)n1` (stereo not drawn) [Example 29, 2-(2-(3,4-dichlorophenyl)-1-(2-(piperidine-3-ylamino)pyrimidine-4-yl)-1H-imidazole-5-yl)acetonitrile] fall in the same range of IC50: 30 to 100 nM for the first, 30 to 100 nM for the second.
